According to publication PMC7300217, “Surfactin Like Broad Spectrum Antimicrobial Lipopeptide Co-produced With Sublancin From Bacillus subtilis Strain A52: Dual Reservoir of Bioactives” (Frontiers in Microbiology, 2020):

What was measured:
[1] = test system: C. acutatum MTCC1037; assay: MIC against phytopathogenic fungi, 96-well microtiter plate assay; format: cell-based, Colletotrichum acutatum; conditions: 1 × 10^5 spores/ml in PDB, 25°C, OD600 after 48 h, triplicate
Procedure: (§1) The antimicrobial activity was tested by well diffusion assay as mentioned earlier ([Singh et al., 2014]). Strain A52 was grown for 24 h in 500 ml of nutrient broth (NB, Hi-media, India) using 1000 ml flask and subsequently cells were removed by centrifugation (10,000 rpm for 15 min at 4°C). Supernatant was filtered through 0.22 μm filter (Millipore, United States) to obtain cell-free fermented broth (CFB) that was used for antimicrobial assay (50 μl) against various indicator strains and the activity was measured as diameter of inhibition zone. […]
(§2) The minimum inhibitory concentration (MIC) of HPLC purified peptides was evaluated by using microtiter plate dilution assay. […] OD was measured at 600 nm after 24 and 48 h for bacteria and yeast, respectively, using ELISA microplate reader (Thermo, United States). MIC against phytopathogenic fungi was determined using 96-well microtiter plate assay ([Kaur et al., 2016]). […] The microplates were incubated at 25°C and readings were recorded at 600 nm after 48 h. […]

[2] = test system: A. brassicicola MTCC 2102; assay: as above; format: cell-based, Alternaria brassicicola; conditions: 1 × 10^5 spores/ml in PDB, 25°C, OD600 after 48 h, triplicate
Procedure: as §1, §2

[3] = test system: S. aureus MTCC 1430; assay: In-gel activity assay (Tricine-SDS-PAGE); format: cell-based, Staphylococcus aureus; conditions: 16% Tricine-SDS-PAGE, ∼10^6 cells/ml
Procedure: (§3) Purified antimicrobial peptides were analyzed on TLC plates (Silica gel 60 F254, Merck, Germany) and used to determine the purity and antimicrobial activity of the compound by bioautographic assay ([Zheng et al., 2005]). About 50–60 μl of the peptide solution (100 μg/ml concentration) was loaded onto individual TLC silica gel plates in duplicates and were developed using a solvent system containing chloroform: […]: water (65:12:4 v/v). Subsequently, each TLC plate was dried, cut into two vertical parts, and one part of the TLC was used for direct detection of antimicrobial activity by overlaying on NA plate containing indicator strain (S. aureus MTCC 1430, ∼10^6 cells/ml). After allowing for 1 h of diffusion at 4°C, the TLC strip was removed and plates were incubated for 24 h at 37°C. The other part of TLC strip (5–10 μl of the peptide solution spot) was sprayed with ninhydrin and phosphomolybdic acid as a staining reagent to detect the presence of peptides and lipid moieties, respectively. Similarly, peptides were electrophoresed on 16% Tricine-SDS-PAGE and used for in-gel activity assay as described earlier ([Baindara et al., 2016]). S. aureus MTCC 1430 (∼10^6 cells/ml) was used as an indicator strain in assay.

[4] = test system: C. albicans MTCC 227; assay: MIC, microtiter plate dilution assay; format: cell-based, Candida albicans; conditions: 5 × 10^5 CFU/ml, 37°C, OD600 after 48 h, triplicate
Procedure: (§4) The antimicrobial activity was tested by well diffusion assay as mentioned earlier ([Singh et al., 2014]). Strain A52 was grown for 24 h in 500 ml of nutrient broth (NB, Hi-media, India) using 1000 ml flask and subsequently cells were removed by centrifugation (10,000 rpm for 15 min at 4°C). Supernatant was filtered through 0.22 μm filter (Millipore, United States) to obtain cell-free fermented broth (CFB) that was used for antimicrobial assay (50 μl) against various indicator strains and the activity was measured as diameter of inhibition zone. Test strains used were Staphylococcus aureus (MTCC 1430), Bacillus subtilis (MTCC 121), B. firmus (MTCC 488), B. licheniformis (MTCC 429), B. thuringiensis (MTCC 1953), Escherichia coli (MTCC 1610), Micrococcus luteus (MTCC 106), Steptococcus pyrogens (MTCC 1928), S. anginosus (MTCC 1929), S. oralis (MTCC 2696), S. mutans (MTCC 497), Candida albicans (MTCC 1637), C. albicans (MTCC 183), C. albicans (MTCC 227), C. tropicalis (MTCC 184), C. glabrata (MTCC 3019), C. haemulonii (MTCC 2766), and C. inconsplicue (MTCC 1074). The phytopathogenic fungi employed in this study were Alternaria brassicicola (MTCC 2102), Colletotrichum acutatum (MTCC 1037), and Fusarium moniliforme (MTCC 158). Clinical isolates of Candida were provided by National Culture Collection of Pathogenic Fungi (NCCPF), PGIMER, Chandigarh, India.
(§5) The minimum inhibitory concentration (MIC) of HPLC purified peptides was evaluated by using microtiter plate dilution assay. The peptide concentration was estimated using BCA protein assay (Thermo Fisher Scientific, United States) method as described by manufacturer. Actively growing test strains (5 × 10^5 CFU/ml) were inoculated in a 96-well plate with different concentrations of the peptides and plates were incubated for 24–48 h at 37°C (final volume in each well is 200 μl). OD was measured at 600 nm after 24 and 48 h for bacteria and yeast, respectively, using ELISA microplate reader (Thermo, United States). MIC against phytopathogenic fungi was determined using 96-well microtiter plate assay ([Kaur et al., 2016]). In 96-well microplates, 100 μl of fungal spore suspension (1 × 10^5 spores/ml) prepared in potato dextrose broth (PDB, Hi-media, India) was mixed with100 μl of fresh PDB containing different concentrations of lipopeptide. Control well contained 100 μl of fungal spore suspension and 100 μl of only medium. The microplates were incubated at 25°C and readings were recorded at 600 nm after 48 h. The lowest concentration showing no growth was considered as MIC. Each test was done in triplicate and optical density (OD600) of peptide treated wells were compared with uninoculated wells (blank medium control).

[5] = test system: C. albicans 400054 (clinical isolate); assay: MIC, microtiter plate dilution assay; format: cell-based, Candida albicans; conditions: 5 × 10^5 CFU/ml, 37°C, OD600 after 48 h, triplicate
Procedure: as §4, §5

[6] = test system: C. albicans MTCC 183; assay: MIC, microtiter plate dilution assay; format: cell-based, Candida albicans; conditions: 5 × 10^5 CFU/ml, 37°C, OD600 after 48 h, triplicate
Procedure: as §4, §5

[7] = test system: C. albicans MTCC 1637; assay: MIC, microtiter plate dilution assay; format: cell-based, Candida albicans; conditions: 5 × 10^5 CFU/ml, 37°C, OD600 after 48 h, triplicate
Procedure: as §4, §5

[8] = test system: S. aureus MTCC 1430; assay: TLC overlay bioautography; format: cell-based, Staphylococcus aureus; conditions: ∼10^6 cells/ml, 24 h at 37°C
Procedure: as §3

[9] = test system: A. brassicicola MTCC 2102 spores; assay: Effect on fungal spores, phase contrast microscopy; format: cell-based, Alternaria brassicicola
Procedure: The effect of peptide on cell membrane was determined by scanning electron microscopy (SEM) and transmission electron microscopy (TEM) after treatment with AMPs. For this, test strains S. aureus MTCC 1430 and C. albicans MTCC 183 were cultured to mid-log phase in respective media. The cells were harvested by centrifugation at 10,000 × g for 10 min, washed thrice with 1X PBS, and re-suspended to adjust an OD600 of 0.2. […] Following the incubation, cells were processed for SEM and TEM as described ([Raje et al., 2006]). The specimens were completely dried using freeze drier, coated with gold, and visualized under a scanning electron microscope (ZEISS, Germany). For TEM (JEOL, JEM 2100, United States), cells were treated with peptide, washed, and subjected to negative stain 0.1% sodium phosphotungstate (Sigma, United States) for visualization. Effect of A52 lipopeptide on fungal spore was observed through a phase contrast microscope (Nickon H600L, Japan).

[10] = test system: rabbit blood cells; assay: Hemolysis assay; format: cell-based, New Zealand white rabbit
Procedure: For hemolysis assay blood was collected from New Zealand white rabbit, centrifuged, washed three times, and resuspended in phosphate-buffered saline (PBS). Cells were counted using hemocytometer (adjusted to 2 × 10^8 cells/ml) and treated with different concentrations of peptides (between 10 and 200 μg/ml). They were incubated in a CO2 incubator for 24 h at 37°C and processed to observe release of hemoglobin as described earlier ([Singh et al., 2014]). PBS and 0.1% Triton X-100 were used as agents for 0 and 100% hemolysis, respectively.

“Glu^1-Leu/Ile^2-Leu^3-Val^4-Asp^5-Leu^6-Leu/Ile^7 and a β-OH hexadecane fatty acid chain (lariat or depsi) [Lipopeptide A52, cyclic surfactin-like lipopeptide, 7 amino acids and C16 β-hydroxy fatty acid, 1061.9 Da, from B. subtilis strain A52]” was tested, and the “MIC value, C. acutatum MTCC1037” value [1] was 35 µg/mL, the “MIC value, A. brassicicola MTCC 2102” value [2] was 25 µg/mL and the “antimicrobial activity in in-gel assay” value [3] was “No antimicrobial activity was detected”. The “MIC value, C. albicans MTCC 227” value [4] was 24 µg/mL, the “MIC value, C. albicans 400054” value [5] was 16 µg/mL and the “MIC value, C. albicans MTCC 183” value [6] was 12 µg/mL. For the same substance, the “MIC value, C. albicans MTCC 1637” value [7] was 28 µg/mL, the “inhibition in TLC based overlay bioautographic assay” value [8] was “inhibited” and the “lysis of fungal spores” value [9] was “able to lyse the spores”. The hemolytic activity [10] was “demonstrated hemolytic activity”.
